Measured values as given in paper PMC10746543, “Design principles for cyclin K molecular glue degraders” (Nature Chemical Biology, 2023).
Several values for one entry are separate records, joined by “and”; a condition that tells them apart may be missing. Identical values can stand only once. Like-named read-outs stand apart in the source and are kept apart here.

Legend:
CDK9–cyclin T = biological target: T1, CDK9–cyclin T (Homo sapiens, UniProt P50750); assay: Lanthascreen kinase binding assay, CDK9; settings: for IC50: Supplementary Table 2, read-out: Lanthascreen IC50 [nM] CDK9; for Lanthascreen TR-FRET signal (raw ratio), sheet CDK9: duplicates
T1 construct: purchased Thermo Fisher
Procedure: (§1) Lanthascreen experiments were performed using commercially available reagents (Thermo Fisher) and according to the manufacturer’s instructions.

HEK293T cells = assay: Drug sensitivity assay (CellTiter-Glo viability) with or without MLN4924 pretreatment; assay type: cell-based, human; settings: Supplementary Table 2; for EC50: Homo sapiens, HEK-293T, HEK293T viability, 72 h, compound alone, read-out: Cellular assays EC50; for Toxicity rescue: MLN4924-mediated cytotoxicity rescue, 10 µM used where n.d.
How it was run: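 Luminescent ATP read-out (CellTiter-Glo) after 3 days of drug exposure, normalised to DMSO controls. Cells were HEK293T–Cas9, pretreated with 100 nM MLN4924 or DMSO for 2 h before drug dispensing.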

CDK2–cyclin A = biological target: T2, CDK2–cyclin A (Homo sapiens, UniProt P24941); assay: Lanthascreen kinase binding assay, CDK2
T2 construct: purchased Thermo Fisher
Procedure: as §1

[1] = compound 0.038147 nM, second titration set (r13)
[2] = compound 0.152588 nM, second titration set (r13)
[3] = compound 0.610352 nM, second titration set (r13)
[4] = compound 1.02544 nM, first titration set (r1)
[5] = compound 3.15521 nM, first titration set (r1)
[6] = compound 9.46563 nM, first titration set (r1)
[7] = compound 9.76563 nM, second titration set (r13)
[8] = compound 31.5521 nM, first titration set (r1)
[9] = compound 39.0625 nM, second titration set (r13)
[10] = compound 99.3891 nM, first titration set (r1)
[11] = compound 156.25 nM, second titration set (r13)
[12] = compound 315.521 nM, first titration set (r1)
[13] = compound 625 nM, second titration set (r13)
[14] = compound 2500 nM, second titration set (r13)
[15] = compound 3155.21 nM, first titration set (r1)
[16] = compound 10000 nM, second titration set (r13)
[17] = compound 10002 nM, first titration set (r1)
[18] = Compound 0.038147 nM, raw replicates, experiment r13-r23
[19] = Compound 0.152588 nM, raw replicates, experiment r13-r23
[20] = Compound 0.610352 nM, raw replicates, experiment r13-r23
[21] = Compound 1.02544 nM, raw replicates, experiment r1-r11
[22] = Compound 3.15521 nM, raw replicates, experiment r1-r11
[23] = Compound 9.46563 nM, raw replicates, experiment r1-r11
[24] = Compound 9.76563 nM, raw replicates, experiment r13-r23
[25] = Compound 31.5521 nM, raw replicates, experiment r1-r11
[26] = Compound 39.0625 nM, raw replicates, experiment r13-r23
[27] = Compound 99.3891 nM, raw replicates, experiment r1-r11
[28] = Compound 156.25 nM, raw replicates, experiment r13-r23
[29] = Compound 315.521 nM, raw replicates, experiment r1-r11
[30] = Compound 625 nM, raw replicates, experiment r13-r23
[31] = Compound 2500 nM, raw replicates, experiment r13-r23
[32] = Compound 3155.21 nM, raw replicates, experiment r1-r11
[33] = Compound 10000 nM, raw replicates, experiment r13-r23
[34] = Compound 10002 nM, raw replicates, experiment r1-r11
[35] = Lanthascreen, average, Extended Data Fig. 8, read-out: CDK2 IC50
[36] = Supplementary Table 2, read-out: Lanthascreen IC50 [nM] CDK2

T1 sequence (P50750 whole entry): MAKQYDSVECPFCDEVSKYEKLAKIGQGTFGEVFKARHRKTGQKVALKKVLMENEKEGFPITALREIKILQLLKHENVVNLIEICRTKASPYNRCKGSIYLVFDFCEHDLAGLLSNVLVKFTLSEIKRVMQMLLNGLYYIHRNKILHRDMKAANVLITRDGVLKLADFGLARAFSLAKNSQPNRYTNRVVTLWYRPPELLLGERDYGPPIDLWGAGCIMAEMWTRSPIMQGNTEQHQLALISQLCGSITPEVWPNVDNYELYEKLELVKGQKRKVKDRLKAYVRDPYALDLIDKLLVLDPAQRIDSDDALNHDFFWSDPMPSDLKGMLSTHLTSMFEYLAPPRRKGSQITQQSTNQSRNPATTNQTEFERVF
T1 sequence (O60563 whole entry partner): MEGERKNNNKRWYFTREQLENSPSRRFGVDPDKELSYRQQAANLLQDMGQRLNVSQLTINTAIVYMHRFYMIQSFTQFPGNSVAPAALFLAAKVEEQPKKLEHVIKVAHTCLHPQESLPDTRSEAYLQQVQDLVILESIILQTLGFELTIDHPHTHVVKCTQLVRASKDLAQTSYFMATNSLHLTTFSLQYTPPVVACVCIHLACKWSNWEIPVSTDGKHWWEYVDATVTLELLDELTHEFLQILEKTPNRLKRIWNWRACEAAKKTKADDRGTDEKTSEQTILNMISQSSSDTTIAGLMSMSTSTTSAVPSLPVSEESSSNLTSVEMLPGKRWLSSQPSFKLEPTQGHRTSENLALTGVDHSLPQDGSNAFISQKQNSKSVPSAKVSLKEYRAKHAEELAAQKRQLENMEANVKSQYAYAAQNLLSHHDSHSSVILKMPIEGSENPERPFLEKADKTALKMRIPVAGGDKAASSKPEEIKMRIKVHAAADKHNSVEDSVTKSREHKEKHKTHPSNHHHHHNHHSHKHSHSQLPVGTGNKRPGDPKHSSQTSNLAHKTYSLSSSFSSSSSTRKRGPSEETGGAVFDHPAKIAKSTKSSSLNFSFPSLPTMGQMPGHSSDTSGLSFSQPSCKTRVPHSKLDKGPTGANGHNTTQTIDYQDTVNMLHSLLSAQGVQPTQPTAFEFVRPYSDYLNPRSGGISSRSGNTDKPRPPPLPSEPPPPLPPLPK

SMILES	IC50 (CDK9–cyclin T)	Lanthascreen TR-FRET signal (raw ratio), sheet CDK9 (CDK9–cyclin T; [4])	Lanthascreen TR-FRET signal (raw ratio), sheet CDK9 (CDK9–cyclin T; [5])	Lanthascreen TR-FRET signal (raw ratio), sheet CDK9 (CDK9–cyclin T; [6])	Lanthascreen TR-FRET signal (raw ratio), sheet CDK9 (CDK9–cyclin T; [8])	Lanthascreen TR-FRET signal (raw ratio), sheet CDK9 (CDK9–cyclin T; [10])	Lanthascreen TR-FRET signal (raw ratio), sheet CDK9 (CDK9–cyclin T; [12])	Lanthascreen TR-FRET signal (raw ratio), sheet CDK9 (CDK9–cyclin T; [15])	Lanthascreen TR-FRET signal (raw ratio), sheet CDK9 (CDK9–cyclin T; [17])	EC50 (HEK293T cells)	Toxicity rescue (HEK293T cells)	Lanthascreen signal, sheet CDK2 (CDK2–cyclin A; [21])	Lanthascreen signal, sheet CDK2 (CDK2–cyclin A; [22])	Lanthascreen signal, sheet CDK2 (CDK2–cyclin A; [23])	Lanthascreen signal, sheet CDK2 (CDK2–cyclin A; [25])	Lanthascreen signal, sheet CDK2 (CDK2–cyclin A; [27])	Lanthascreen signal, sheet CDK2 (CDK2–cyclin A; [29])	Lanthascreen signal, sheet CDK2 (CDK2–cyclin A; [32])	Lanthascreen signal, sheet CDK2 (CDK2–cyclin A; [34])	IC50 (CDK2–cyclin A; [36])	further results
O=C(CSc1nnc2c(n1)[nH]c1ccccc12)Nc1ccc(Cl)cn1 [dCeMM2]	1110 nM	0.01429 and 0.01561	0.01467 and 0.01402	0.01439 and 0.01388	0.01459 and 0.0177	0.01319 and 0.01787	0.01154 and 0.01497	0.01003 and 0.01129	0.009746 and 0.009366	1.42 µM	398%	0.01157 and 0.009543	0.01134 and 0.008854	0.008629 and 0.01226	0.009538 and 0.01114	0.01108 and 0.01101	0.0103 and 0.01153	0.01038 and 0.01039	0.01161 and 0.009572	> 10000 nM	Lanthascreen TR-FRET signal (raw ratio), sheet CDK9 (CDK9–cyclin T; [1]): 0.01383 and 0.01355; Lanthascreen TR-FRET signal (raw ratio), sheet CDK9 (CDK9–cyclin T; [2]): 0.0139 and 0.01441; Lanthascreen TR-FRET signal (raw ratio), sheet CDK9 (CDK9–cyclin T; [3]): 0.01347 and 0.01396; Lanthascreen TR-FRET signal (raw ratio), sheet CDK9 (CDK9–cyclin T; [7]): 0.01427 and 0.01339; Lanthascreen TR-FRET signal (raw ratio), sheet CDK9 (CDK9–cyclin T; [9]): 0.01365 and 0.01337; Lanthascreen TR-FRET signal (raw ratio), sheet CDK9 (CDK9–cyclin T; [11]): 0.01319 and 0.01335; Lanthascreen TR-FRET signal (raw ratio), sheet CDK9 (CDK9–cyclin T; [13]): 0.01033 and 0.01039; Lanthascreen TR-FRET signal (raw ratio), sheet CDK9 (CDK9–cyclin T; [14]): 0.00843 and 0.008233; Lanthascreen TR-FRET signal (raw ratio), sheet CDK9 (CDK9–cyclin T; [16]): 0.006379 and 0.005879; Lanthascreen signal, sheet CDK2 (CDK2–cyclin A; [18]): 0.01324 and 0.0125; Lanthascreen signal, sheet CDK2 (CDK2–cyclin A; [19]): 0.01322 and 0.0127; Lanthascreen signal, sheet CDK2 (CDK2–cyclin A; [20]): 0.01294 and 0.01324; Lanthascreen signal, sheet CDK2 (CDK2–cyclin A; [24]): 0.01333 and 0.01313; Lanthascreen signal, sheet CDK2 (CDK2–cyclin A; [26]): 0.01348 and 0.0134; Lanthascreen signal, sheet CDK2 (CDK2–cyclin A; [28]): 0.01287 and 0.01355; Lanthascreen signal, sheet CDK2 (CDK2–cyclin A; [30]): 0.01294 and 0.01314; Lanthascreen signal, sheet CDK2 (CDK2–cyclin A; [31]): 0.01073 and 0.0108; Lanthascreen signal, sheet CDK2 (CDK2–cyclin A; [33]): 0.01123 and 0.01202; IC50 (CDK2–cyclin A; [35]): > 10000 nM
O=C(CSc1nc2ccccc2[nH]1)Nc1ccc(Cl)cn1 [dCeMM3]	3020 nM	0.01545 and 0.0134	0.01353 and 0.01504	0.01222 and 0.01325	0.0135 and 0.01525	0.01289 and 0.01231	0.01199 and 0.01288	0.006467 and 0.007084	0.0026 and 0.00423	> 10 µM	0%	0.008366 and 0.009193	0.01197 and 0.009076	0.01142 and 0.01118	0.01118 and 0.009287	0.01102 and 0.008633	0.01039 and 0.01098	0.0101 and 0.009174	0.008182 and 0.007001	> 10000 nM	Lanthascreen TR-FRET signal (raw ratio), sheet CDK9 (CDK9–cyclin T; [1]): 0.01294 and 0.01365; Lanthascreen TR-FRET signal (raw ratio), sheet CDK9 (CDK9–cyclin T; [2]): 0.0141 and 0.01339; Lanthascreen TR-FRET signal (raw ratio), sheet CDK9 (CDK9–cyclin T; [3]): 0.0143 and 0.01462; Lanthascreen TR-FRET signal (raw ratio), sheet CDK9 (CDK9–cyclin T; [7]): 0.01396 and 0.01385; Lanthascreen TR-FRET signal (raw ratio), sheet CDK9 (CDK9–cyclin T; [9]): 0.0129 and 0.01348; Lanthascreen TR-FRET signal (raw ratio), sheet CDK9 (CDK9–cyclin T; [11]): 0.01372 and 0.01352; Lanthascreen TR-FRET signal (raw ratio), sheet CDK9 (CDK9–cyclin T; [13]): 0.01085 and 0.01132; Lanthascreen TR-FRET signal (raw ratio), sheet CDK9 (CDK9–cyclin T; [14]): 0.0085 and 0.007435; Lanthascreen TR-FRET signal (raw ratio), sheet CDK9 (CDK9–cyclin T; [16]): 0.00463 and 0.004475; Lanthascreen signal, sheet CDK2 (CDK2–cyclin A; [18]): 0.01285 and 0.01289; Lanthascreen signal, sheet CDK2 (CDK2–cyclin A; [19]): 0.01318 and 0.01321; Lanthascreen signal, sheet CDK2 (CDK2–cyclin A; [20]): 0.01258 and 0.01278; Lanthascreen signal, sheet CDK2 (CDK2–cyclin A; [24]): 0.01261 and 0.01356; Lanthascreen signal, sheet CDK2 (CDK2–cyclin A; [26]): 0.01377 and 0.01313; Lanthascreen signal, sheet CDK2 (CDK2–cyclin A; [28]): 0.01301 and 0.01263; Lanthascreen signal, sheet CDK2 (CDK2–cyclin A; [30]): 0.01331 and 0.01224; Lanthascreen signal, sheet CDK2 (CDK2–cyclin A; [31]): 0.0123 and 0.01244; Lanthascreen signal, sheet CDK2 (CDK2–cyclin A; [33]): 0.01049 and 0.00891; IC50 (CDK2–cyclin A; [35]): > 10000 nM
Cc1cc2nc(CNc3nc(N4CCN(C)CC4)nc4c(Br)cnn34)[nH]c2cc1C [DS73, reference compound]	557 nM	0.01409 and 0.01452	0.01533 and 0.01444	0.01086 and 0.01492	0.01278 and 0.01412	0.01498 and 0.0129	0.01059 and 0.008471	0.004926 and 0.00557	0.002868 and 0.004276	0.002 µM	850%	0.01165 and 0.01109	0.008478 and 0.00993	0.009994 and 0.009998	0.01039 and 0.01091	0.0115 and 0.01029	0.008046 and 0.01008	0.007483 and 0.007205	0.003415 and 0.004039	6120 nM	Lanthascreen signal, sheet CDK2 (CDK2–cyclin A; Compound 4.57247 nM, experiment r25-r34): 0.01637; Lanthascreen signal, sheet CDK2 (CDK2–cyclin A; Compound 13.7174 nM, experiment r25-r34): 0.01615; Lanthascreen signal, sheet CDK2 (CDK2–cyclin A; Compound 41.1523 nM, experiment r25-r34): 0.01569; Lanthascreen signal, sheet CDK2 (CDK2–cyclin A; Compound 123.457 nM, experiment r25-r34): 0.01519; Lanthascreen signal, sheet CDK2 (CDK2–cyclin A; Compound 370.37 nM, experiment r25-r34): 0.01387; Lanthascreen signal, sheet CDK2 (CDK2–cyclin A; Compound 3333.33 nM, experiment r25-r34): 0.009102; Lanthascreen signal, sheet CDK2 (CDK2–cyclin A; Compound 10000 nM, experiment r25-r34): 0.006383
